Experimental data published in paper PMC5963757, “Expression, purification, and inhibition profile of dihydrofolate reductase from the filarial nematode Wuchereria bancrofti” (PLoS ONE, 2018).
Like-named read-outs stand apart in the source and are kept apart here.

What was measured:
[1] = molecular target: T1, WbDHFR (Wuchereria bancrofti, UniProt J9F199); type: biochemical
Protocol: Compounds (-)-epicatechin, (-)-epicatechin gallate, and vitexin were tested as inhibitors of WbDHFR and BmDHFR. The compounds (-)-epicatechin and (-)-epicatechin gallate were synthesized as described previously. […] Disappearance of DHF and NADPH was observed by measuring absorbance at 340 nm to measure the DHFR activity in a SpectraMax M3 microplate reader. […] All experiments were completed in triplicate.

[2] = molecular target: T1, WbDHFR
Protocol: To determine the mechanism of inhibition, Dixon plots were created and analyzed for the inhibitors against WbDHFR. We determined WbDHFR activity as described above at DHF concentrations of 2 μM, 4 μM, and 8 μM in 200 μL reaction volumes. WbDHFR (6 nM) and 100 μM NADPH cofactor were included in 1 X MTEN buffer at pH 6.0. […] The reciprocal initial velocities were plotted against inhibitor concentration for each substrate in Excel to create the Dixon plots. Substrate trend-lines were extended to calculate the intersection point,–KI. Each Dixon plot was generated in triplicate.
A linear equation was fitted to the data at each substrate concentration. […] The KI values for BmDHFR in Table 1 were obtained using the Cheng-Prusoff Equation [18]. […] Inhibitor structures are shown in supporting information (S2 Fig).

[3] = read-out: IC50 WbDHFR, pH 6.0, 100 μM NADPH, 50 μM DHF, 12.1 nM WbDHFR, average of triplicates ± S.D.
[4] = read-out: IC50 against WbDHFR Average, average of three trials
[5] = read-out: IC50 against WbDHFR Trial 1, individual trial
[6] = read-out: IC50 against WbDHFR Trial 2, individual trial
[7] = read-out: IC50 against WbDHFR Trial 3, individual trial
[8] = read-out: Average KI, WbDHFR, average of three trials, Dixon plots
[9] = read-out: KI Trial 1, WbDHFR, individual trial, Dixon plot
[10] = read-out: KI Trial 2, WbDHFR, individual trial, Dixon plot
[11] = read-out: KI Trial 3, WbDHFR, individual trial, Dixon plot
[12] = read-out: KI WbDHFR, from Dixon plots, 6 nM WbDHFR, 100 μM NADPH, DHF 2, 4, 8 μM, pH 6.0, ± S.D.

Row | SMILES | IC50 [1, 3] [µM] | IC50 [1, 4] [µM] | IC50 [1, 5] [µM] | IC50 [1, 6] [µM] | IC50 [1, 7] [µM] | Ki [2, 8] [µM] | Ki [2, 9] [µM] | Ki [2, 10] [µM] | Ki [2, 11] [µM] | Ki [2, 12] [µM] | Ki ([2]; read-out: KI WbDHFR, as stated in text (abstract, discussion)) [µM]
1 | O=c1cc(-c2ccc(O)cc2)oc2c([C@@H]3O[C@H](CO)[C@@H](O)[C@H](O)[C@H]3O)c(O)cc(O)c12 [Vitexin, vitexin] | > 240 | – | – | – | – | – | – | – | – | – | –
2 | CCc1nc(N)nc(N)c1-c1ccc(Cl)cc1 [Pyrimethamine, pyrimethamine] | 454 ± 37 | 454 | 449 | 494 | 420 | 15 | 20.3 | 15.9 | 8.89 | 15 ± 6 | –
3 | Oc1cc(O)c2c(c1)O[C@H](c1ccc(O)c(O)c1)[C@H](O)C2 [(-)-Epicatechin, (-)-epicatechin] | > 2500 | – | – | – | – | – | – | – | – | – | –
4 | Nc1nc(N)c2nc(CNc3ccc(C(=O)N[C@@H](CCC(=O)O)C(=O)O)cc3)cnc2n1 [Aminopterin, aminopterin] | 0.014 ± 0.005 | 0.0144 | 0.0203 | 0.00996 | 0.013 | – | 0.0026 | 0.00219 | 0.0016 | 0.0021 ± 0.0005 | 0.0021 ± 0.0005
5 | Cc1nc2ccc(CN(C)c3ccc(C(=O)N[C@@H](CCC(=O)O)C(=O)O)s3)cc2c(=O)[nH]1 [Raltitrexed, raltitrexed] | 18 ± 10 | 17.8 | 28.6 | 11.7 | 13 | 1.6 | 0.536 | 1.09 | 3.32 | – | –
